Measured values taken from patent publication US20110152091A1, “Herbicidal Compositions Comprising Flufenacet” (BAYER CROPSCIENCE AG, priority 2009, published 2011).

What was measured:
Assay type in all cases: in vivo
Poa annua (POAAN) = assay: Greenhouse trial: PE soil application vs incorporation into the soil (test methods 1, 3 and 4); conditions: g of AS/ha: A 75, B 60, C 70, mixture 75 + 60 + 70
Method: (§1) In the standard design of the test, seeds of various broad-leaved weed and weed grass biotypes (origins) were sown in a 8-13 cm diameter pot filled with natural soil of a standard field soil (loamy silt; non-sterile) and covered with a covering soil layer of about 1 cm. The pots were then cultivated in a greenhouse (12-16 h of light, temperature day 20-22° C., night 15-18° C.) until the time of application. The pots were treated on a laboratory track sprayer with spray liquors comprising the compositions according to the invention, mixtures of the prior art or components used individually. Application of the active compounds or active compound combinations formulated as WG, WP, EC or otherwise was carried out at the appropriate growth stages of the plants. The application rate for the spray application was 100-600 l of water/ha. After the treatment, the plants were returned to the greenhouses.
(§2) About 3 weeks after the application, the soil action or/and foliar action was assessed visually according to a scale of 0-100% in comparison to an untreated comparative group: 0%=no noticeable effect compared to the untreated comparative group; 100%=full effect compared to the untreated comparative group.
(§3) (notes: the term “seeds” also includes vegetative propagation forms such as, for example, rhizome pieces; abbreviations used: h light=hours of illumination, g of AS/ha=gram of active substance per hectare, l/ha=liter per hectare, S=sensitive, R=resistant) • 1. Pre-emergence action against weeds: seeds of various broad-leaved weed and weed grass biotypes (origins) were sown in a 8-13 cm diameter pot filled with natural soil of a standard field soil (loamy silt; non-sterile) and covered with a covering soil layer of about 1 cm. The pots were then cultivated in a greenhouse (12-16 h of light, temperature day 20-22° C., night 15-18° C.) until the time of application. The pots were treated at the BBCH stage 00-10 of the seeds/plants on a laboratory track sprayer with spray liquors comprising the compositions according to the invention, mixtures or components used individually, as WG, WP, EC or other formulations. The application rate for the spray application was 100-600 l of water/ha. After the treatment, the plants were returned to the greenhouses and, when required, treated with fertilizer and watered. • 2. Post-emergence action against weeds: seeds of various broad-leaved weed and weed grass biotypes (origins) were sown in a 8-13 cm diameter pot filled with natural soil of a standard field soil (loamy silt; non-sterile) and covered with a covering soil layer of about 1 cm. The pots were then cultivated in a greenhouse (12-16 h of light, temperature day 20-22° C., night 15-18° C.) until the time of application. The pots were treated at various BBCH stages between 11-25 of the seeds/plants, i.e. generally between two to three weeks after the start of the cultivation, on a laboratory track sprayer with spray liquors comprising the compositions according to the invention, mixtures or components used individually, as WG, WP, EC or other formulations. The application rate for the spray application was 100-600 l of water/ha. After the treatment, the plants were returned to the greenhouses and, when required, treated with fertilizer and watered. • 3. Pre-emergence action against weeds with and without incorporation of active compound: seeds of various broad-leaved weed and weed grass biotypes (origins) were sown in a 8-13 cm diameter pot filled with natural soil of a standard field soil (loamy silt; non-sterile). […]

Stellaria media (STEME) [1] = assay: as above; conditions: g of AS/ha: A 75, B 60, C 70, mixture 75 + 60 + 70
Method: as §1, §2, §3

[2] = system: Triticum aestivum, winter wheat (TRZAW); assay: Greenhouse trial: PE soil application vs incorporation into the soil, crop plant (test methods 1, 3 and 4); conditions: g of AS/ha: A 75, B 60, C 70, mixture 75 + 60 + 70
Method: as §1, §2, §3

[3] = system: Apera Spica-venti (APESV); assay: Greenhouse trial: PO application (test methods 2 and 5); conditions: g of AS/ha: A 240, B 120, C 140, mixture 240 + 120 + 140
Method: as §1
(§4) About 3 weeks after the application, the soil action or/and foliar action was assessed visually according to a scale of 0-100% in comparison to an untreated comparative group: 0%=no noticeable effect compared to the untreated comparative group; 100%=full effect compared to the untreated comparative group. […]

[4] = system: Hordeum vulgare, summer barley (HORVS); assay: Greenhouse trial: PO application, crop plant (test methods 2 and 5); conditions: g of AS/ha: A 240, B 120, C 140, mixture 240 + 120 + 140
Method: as §1, §2
(notes: the term “seeds” also includes vegetative propagation forms such as, for example, rhizome pieces; abbreviations used: h light=hours of illumination, g of AS/ha=gram of active substance per hectare, l/ha=liter per hectare, S=sensitive, R=resistant) • 1. Pre-emergence action against weeds: seeds of various broad-leaved weed and weed grass biotypes (origins) were sown in a 8-13 cm diameter pot filled with natural soil of a standard field soil (loamy silt; non-sterile) and covered with a covering soil layer of about 1 cm. The pots were then cultivated in a greenhouse (12-16 h of light, temperature day 20-22° C., night 15-18° C.) until the time of application. […]

Avena fatua (AVEFA) [5] = assay: Greenhouse trial: pre-sowing method vs PE application (test method 6); conditions: g of AS/ha: A 90, B 90, C 140, mixture 90 + 90 + 140
Method: as §1, §2, §3

Lolium perenne (LOLPE) = assay: as above; conditions: g of AS/ha: A 90, B 90, C 140, mixture 90 + 90 + 140
Method: as §1, §2, §3

[6] = system: Triticum aestivum, winter wheat (TRZAW); assay: Greenhouse trial: pre-sowing method vs PE application, crop plant (test method 6); conditions: g of AS/ha: A 90, B 90, C 140, mixture 90 + 90 + 140
Method: as §1, §2, §3

[7] = system: Matricaria chamomilla (MATCH); assay: Greenhouse trial: different soil types (test method 7); conditions: g of AS/ha: A 90, B 90, C 140, mixture 90 + 90 + 140
Method: as §1, §2, §3

Stellaria media (STEME) [8] = assay: as above; conditions: g of AS/ha: A 90, B 90, C 140, mixture 90 + 90 + 140
Method: as §1, §2, §3

[9] = system: Hordeum vulgare, summer barley (HORVS); assay: Greenhouse trial: different soil types, crop plant (test method 7); conditions: g of AS/ha: A 90, B 90, C 140, mixture 90 + 90 + 140
Method: as §1, §2, §3

[10] = system: Hordeum vulgare, summer barley (HORVS); assay: Greenhouse trial: different sowing depths on PE application, crop plant (test method 9); conditions: g of AS/ha: A 90, B 90, C 140, mixture 90 + 90 + 140; for activity HORVS 5 mm (visual, scale 0-100%): Sowing depth 5 mm; for activity HORVS 20 mm (visual, scale 0-100%): Sowing depth 20 mm
Method: as §1, §2, §3

[11] = system: Hordeum vulgare, summer barley (HORVS); assay: Greenhouse trial: different soil pH values on PE application, crop plant (test method 11); conditions: for activity HORVS pH 7.4 (visual, scale 0-100%): soil pH 7.4, g of AS/ha: A 90, B 90, C 140, mixture 90 + 90 + 140; for activity HORVS pH 8.4 (visual, scale 0-100%): soil pH 8.4, g of AS/ha: A 90, B 90, C 140, mixture 90 + 90 + 140
Method: as §1, §2, §3

Avena fatua (AVEFA) [12] = assay: Greenhouse trial: different soil pH values on PE application (test method 11); conditions: for activity AVEFA pH 7.4 (visual, scale 0-100%): soil pH 7.4, g of AS/ha: A 90, B 90, C 140, mixture 90 + 90 + 140; for activity AVEFA pH 8.4 (visual, scale 0-100%): soil pH 8.4, g of AS/ha: A 90, B 90, C 140, mixture 90 + 90 + 140
Method: as §1, §2, §3

[13] = system: Lolium species (LOLSS), sensitive and resistant biotypes; assay: Greenhouse trial: resistant biotypes following PE application (test method 8); conditions: g of AS/ha: A 90, B 90, C 140, mixture 90 + 90 + 140, iodosulfuron 10
Method: as §1, §4

[14] = system: Matricaria chamomilla (MATCH); assay: Greenhouse trial: different sowing depths on PE application (test method 9); conditions: g of AS/ha: A 90, B 90, C 140, mixture 90 + 90 + 140
Method: as §1, §4

[15] = Application 7 days prior to sowing

Row | Compound | activity POAAN (visual, scale 0-100%) (Poa annua (POAAN); Incorporation into the soil) [%] | activity POAAN (visual, scale 0-100%) (Poa annua (POAAN); PE application) [%] | activity STEME (visual, scale 0-100%) (Stellaria media (STEME) [1]; PE application) [%] | activity TRZAW (visual, scale 0-100%) ([2]; Incorporation into the soil) [%] | activity TRZAW (visual, scale 0-100%) ([2]; PE application) [%] | activity APESV (visual, scale 0-100%) [3] [%] | activity HORVS (visual, scale 0-100%) [4] [%] | activity LOLPE (visual, scale 0-100%) (Lolium perenne (LOLPE); PE application) [%] | activity TRZAW (visual, scale 0-100%) [6, 15] [%] | activity TRZAW (visual, scale 0-100%) ([6]; PE application) [%] | activity STEME IU soil (visual, scale 0-100%) (Stellaria media (STEME) [8]) [%] | activity STEME IU/EC73 soil (visual, scale 0-100%) (Stellaria media (STEME) [8]) [%] | activity HORVS IU soil (visual, scale 0-100%) [9] [%] | activity HORVS IU/EC73 soil (visual, scale 0-100%) [9] [%] | activity HORVS 5 mm (visual, scale 0-100%) [10] [%] | activity HORVS 20 mm (visual, scale 0-100%) [10] [%] | activity HORVS pH 7.4 (visual, scale 0-100%) [11] [%] | activity HORVS pH 8.4 (visual, scale 0-100%) [11] [%] | activity AVEFA pH 7.4 (visual, scale 0-100%) (Avena fatua (AVEFA) [12]) [%] | activity AVEFA pH 8.4 (visual, scale 0-100%) (Avena fatua (AVEFA) [12]) [%] | other results
1 | CC(C)N(C(=O)COc1nnc(C(F)(F)F)s1)c1ccc(F)cc1 [(A) flufenacet, N-(4-fluorophenyl)-N-(1-methylethyl)-2-[[5-(trifluoromethyl)-1,3,4-thiadiazol-2-yl]oxy]acetamide] | 90 | 65 | 0 | 60 | 20 | 65 | 60 | 90 | 60 | 30 | 0 | 0 | 10 | 0 | 30 | 20 | 10 | 10 | 80 | 55 | activity AVEFA (visual, scale 0-100%) (Avena fatua (AVEFA) [5]; PE application): 80%; activity MATCH IU soil (visual, scale 0-100%) [7]: 28%
2 | O=C(Nc1ccc(F)cc1F)c1cccnc1Oc1cccc(C(F)(F)F)c1 [(B) diflufenican, N-(2,4-difluorophenyl)-2-[3-(trifluoromethyl)phenoxy]-3-pyridinecarboxamide] | 75 | – | – | 20 | 10 | – | 5 | 60 | 10 | 10 | 95 | 38 | 0 | 0 | 30 | 5 | 0 | 0 | 0 | 30 | activity LOLPE (visual, scale 0-100%) (Lolium perenne (LOLPE); [15]): 0%
3 | CSc1nnc(C(C)(C)C)c(=O)n1N [(C) metribuzin, 4-amino-6-(1,1-dimethylethyl)-3-(methylthio)-1,2,4-triazin-5(4H)-one] | 15 | 0 | 75 | 55 | 30 | 79 | 70 | 50 | 0 | 55 | 75 | 5 | 0 | 0 | 70 | 30 | 40 | 50 | 90 | 90 | activity STEME (visual, scale 0-100%) (Stellaria media (STEME) [1]; Incorporation into the soil): 0%; activity AVEFA (visual, scale 0-100%) (Avena fatua (AVEFA) [5]; [15]): 0%; activity AVEFA (visual, scale 0-100%) (Avena fatua (AVEFA) [5]; PE application): 10%; activity LOLPE (visual, scale 0-100%) (Lolium perenne (LOLPE); [15]): 10%; activity MATCH IU soil (visual, scale 0-100%) [7]: 0%; activity MATCH IU/EC73 soil (visual, scale 0-100%) ([7]; IU/EC73 soil): 15%; activity LOLSS resistant (visual, scale 0-100%) ([13]; resistant biotype): 70%; activity LOLSS sensitive (visual, scale 0-100%) ([13]; sensitive biotype): 70%; activity MATCH 5 mm (visual, scale 0-100%) ([14]; Sowing depth 5 mm): 100%; activity MATCH 20 mm (visual, scale 0-100%) ([14]; Sowing depth 20 mm): 70%
